What was measured:
[1] = Liquid property (pH) of the solution obtained in the solubility evaluation; type: physicochemical
Procedure: A pH of the solution obtained in the evaluation of solubility was evaluated. Liquid property was evaluated according to the following evaluation standard.

[2] = Overall evaluation based on solubility and liquid property; type: physicochemical; details: based on the evaluation results of solubility and liquid property

Question: Which Liquid property [1] does the source give for N[C@@H](CSSC[C@H](N)C(=O)O)C(=O)O [Comparative Example 1, L-cystine] here?
Answer: Its Liquid property is “Neutral (pH of 6.0 to 8.5)”.

Question: And the Overall evaluation [2]?
Answer: The Overall evaluation was “E (the solution was still turbid even after 1 hour, and/or the pH was other than neutral)”.

From patent publication US20250002840A1, “MANUFACTURING METHOD OF MIXED POWDER, MIXED POWDER, POWDER, AND POWDER MEDIUM” (FUJIFILM Corporation, priority 2022, published 2025)
